Test results: patent publication US8129426B2, “Water-soluble artemisinin derivatives, their preparation methods, the pharmaceutical compositions and the use thereof” (priority 2005, dated 2012)

Columns and labels:
[1] = test system: T-cell proliferation (Con A); experiment: Lymphocyte proliferation test, T-cell proliferation stimulated with Con A; assay type: cell-based, Balb/c mice; parameters: concentration or dose not given beside the values; conditions: concentration without any cytotoxicity; screened at 10, 1 and 0.1 μm
Procedure: (§1) Experimental animals: inbred Balb/c male mice, 6-8 weeks old.
(§2) RPMI-1640 culture solution (Roswell Park Memorial Institure-1640 medium, from GibcoBRL, Life Technologies, USA) with 10% fetal bovine serum (FBS), 100 U/mL penicillin, 100 μg/mL streptomycin, 10 mM HEPES (4-(2-hydroxyethyl)-1-piperazineethane sulfonic acid) and 50 μM 2-ME (2-Mercaptoethanol).
(§3) Stimulant: Concanavalin (ConA), and bacterial Lipopolysaccharide (LPS, from Escherichia Coli 055: B5), diluted with RPMI-1640 culture solution to suitable concentration before using.
(§4) [2] Lymphocyte Proliferation Test
(§5) 1) Mice were killed by cervical dislocation, and their spleens were collected aseptically and prepared into a single cell suspension. The cell concentration was adjusted to 4×10^6/mL with RPMI-1640 medium containing 10% FBS.
(§6) 2) 100 μL cell suspension, 50 μL testing sample solution, 50 μL ConA or LPS solution were added into a 96-well plate, and for the control group, 50 μL medium containing 10% FBS was added. The total volume was 200 μL.
(§7) 3) The cell culture was incubated in 5% CO2 incubator at 37 °C for 48 hours, and 0.5 μCi [^3H]-thymidine (25 μL/well) was added into each well 7-8 hours before the termination of the incubation.
(§8) 4) After the incubation was terminated, the cells were harvested on a glassfiber film with a cell harvestor (HARVESTER96®, TOMTEC), and after scintillation fluid was added, the incorporation of [^3H]-thymidine in the cell DNA was measured with a liquid scintillation counter (MicroBeta Trilux®, PerkinElmer) to indicate the state of cell proliferation.

[2] = test system: B-cell proliferation (LPS); experiment: Lymphocyte proliferation test, B-cell proliferation stimulated with LPS; assay type: cell-based, Balb/c mice; conditions: concentration without any cytotoxicity; screened at 10, 1 and 0.1 μm
Procedure: as §1, §2, §3, §4, §5, §6, §7, §8

DTH mice = experiment: Delayed hypersensitive response animal model (DTH); assay type: in vivo; conditions: for thickness difference of swelling on ears: FIG. 1, DTH mice; for weight difference of ear slices: FIG. 2, DTH mice
Procedure: [4] Delayed Hypersensitive Response Animal Model (DTH)
1) The sensitization was induced by topical application of 20 μL of 0.5% (v/v) DNFB in acetone: olive oil (4:1) onto each rear paw of mice on day 0 and 1;
2) Excipient and testing compounds were given by the oral route 1 day before challenge and then once a day for 2 days (days 8-10);
3) The mice were challenged by application of 10 μL of 0.5% (v/v) DNFB on the inner and outer surfaces of the right ear on day 9;
4) The increase in the ear patch weight (8-mm punches) and ear thickness between the left and right ear was measured 30-48 h after challenge.

[3] = test system: response lymphocytes in MLR; experiment: Homologous and heterogeneous mixed lymphocyte proliferation reaction (MLR); assay type: cell-based, C57BL/6 and Balb/c mice; conditions: read-out: EC50, inhibition of proliferation of the response lymphocytes in MLR
Source text: [3] Homologous and Heterogeneous Mixed Lymphocyte Proliferation Reaction (MLR)
1) C57BL/6 and Balb/c mice were killed by cervical dislocation, and their spleens were collected aseptically and levigated into a single cell suspension. After removing the erythrocytes, the cell concentration was adjusted to 6×10^6/mL with RPMI-1640 medium containing 10% FBS.
2) The spleen cells of C57BL/6 mice as the response cells and the spleen cells of Balb/c mice (irradiated with Co60, 3000 rads) as the stimulus cells were mixed in equal volumes.
3) 100 μL cell mixture, 100 μL testing sample were added into a 96-well plate. For the control group, 100 μL medium containing 10% serum was added. And single culture controls of the two kinds of cells were set.
4) The cell cultures were incubated in 5% CO2 incubator at 37 °C for 3, 4 or 5 days. 25 μL ^3H diluent (i.e. […] [^3H]-thymidine) was added one day before the termination of the incubation.
5) After the incubation was terminated, the plate was freezed in a −20[…] refrigerator.
6) The cells were harvested on a glassfiber film with a cell harvestor (HARVESTER96′, TOMTEC), and the incorporation of [^3H]-thymidine in DNA was measured with a liquid scintillation counter (MicroBeta Trilux®, PerkinElmer) to indicate the state of cell proliferation.

[4] = test system: mice arthritis induced by bovine collagen type II; experiment: Mice arthritis model induced by bovine collagen type II; assay type: in vivo, DBA/1 mice; conditions: for scorings of the arthritis degree: FIG. 3 and FIG. 4, with and without the compound; for swelling of the mice' joints: oral, p<0.05

CC1CCC2C(C)C(OCC(O)CN)OC3OC4(C)CCC1C32OO4 (stereo not drawn) [Example 2, 3′-amino-2′-hydroxy-artemisinin propyl ether (β type)]
inhibiting rate to T-cell proliferation (Con A) [1]: 48% | inhibiting rate to B-cell proliferation (LPS) [2]: 48%

CC1CCC2C(C)C(OCC(O)C(c3ccccc3)N3CCCCC3)OC3OC4(C)CCC1C32OO4 (stereo not drawn) [Example 16, 3′-phenyl-3′-piperidyl-2′-hydroxy-artemisinin propyl ether (β type)]
inhibiting rate to T-cell proliferation (Con A) [1]: 0% | inhibiting rate to B-cell proliferation (LPS) [2]: 51%

CNCC(O)COC1OC2OC3(C)CCC4C(C)CCC(C1C)C24OO3 (stereo not drawn) [Example 3, 3′-methylamino-2′-hydroxy-artemisinin propyl ether (β type)]
inhibiting rate to T-cell proliferation (Con A) [1]: 47% | inhibiting rate to B-cell proliferation (LPS) [2]: 51%

CC1CCC2C(C)C(OCC(O)CN3CCCCC3)OC3OC4(C)CCC1C32OO4 (stereo not drawn) [Example 12, 3′-piperidyl-2′-hydroxy-artemisinin propyl ether (β type)]
inhibiting rate to T-cell proliferation (Con A) [1]: 47% | inhibiting rate to B-cell proliferation (LPS) [2]: 47%

CC1CCC2C(C)C(OCC(O)C(c3ccccc3)N(C)C)OC3OC4(C)CCC1C32OO4 (stereo not drawn) [Example 17, 3′-phenyl-3′-dimethylamino-2′-hydroxy-artemisinin propyl ether (β type)]
inhibiting rate to T-cell proliferation (Con A) [1]: 6% | inhibiting rate to B-cell proliferation (LPS) [2]: 24%

CC1CCC2C(C)C(OCC(O)CN3CCCC3)OC3OC4(C)CCC1C32OO4 (stereo not drawn) [Example 11, 3′-pyrrolidinyl-2′-hydroxy-artemisinin propyl ether (β type)]
inhibiting rate to T-cell proliferation (Con A) [1]: 48% | inhibiting rate to B-cell proliferation (LPS) [2]: 99% | thickness difference of swelling on ears (DTH mice): obviously reduced the swelling degree on ears | weight difference of ear slices (DTH mice): obviously reduced the weight of swelling ears | inhibiting rate of swelling of the ear of mice compared with the control group (DTH mice; oral, 100 mg/kg, p<0.01): 50.5%

CC1CCC2C(C)C(OCC(O)C(NC(C)(C)C)c3ccccc3)OC3OC4(C)CCC1C32OO4 (stereo not drawn) [Example 18, 3-phenyl-3′-tert-butylamino-2′-hydroxy-artemisinin propyl ether (β type)]
inhibiting rate to T-cell proliferation (Con A) [1]: 9% | inhibiting rate to B-cell proliferation (LPS) [2]: 26%

CC1CCC2C(C)C(OCC(O)CNC(C)(C)C)OC3OC4(C)CCC1C32OO4 (stereo not drawn) [Example 14, 3′-tert-butylamino-2′-hydroxy-artemisinin propyl ether (β type)]
inhibiting rate to T-cell proliferation (Con A) [1]: 52% | inhibiting rate to B-cell proliferation (LPS) [2]: 81% | EC50 [3]: 670 ± 12 nM | thickness difference of swelling on ears (DTH mice): obviously reduced the swelling degree on ears | weight difference of ear slices (DTH mice): obviously reduced the weight of swelling ears | inhibiting rate of swelling of the ear of mice compared with the control group (DTH mice; oral, 50 mg/kg, p<0.01): 52.2% | scorings of the arthritis degree [4]: can prevent and cure the mice arthritis induced by bovine collagen type II and inhibit the swelling of the sicked joints | swelling of the mice' joints ([4]; 0.5 mg/kg): obviously reduce the swelling of the mice' joints

cyclosporine A [reference compound]
inhibiting rate of swelling of the ear of mice compared with the control group (DTH mice; 5 mg/kg): 40.6%

CC1CCC2C(C)C(OCC(O)C(N)c3ccccc3)OC3OC4(C)CCC1C32OO4 (stereo not drawn) [Example 8, 3′-phenyl-3′-amino-2′-hydroxy-artemisinin propyl ether (β type)]
inhibiting rate to T-cell proliferation (Con A) [1]: 13% | inhibiting rate to B-cell proliferation (LPS) [2]: 42%

CC1CCC2C(C)C(OCCN)OC3OC4(C)CCC1C32OO4 (stereo not drawn) [Example 1, 2′-amino arteether (β type)]
inhibiting rate to T-cell proliferation (Con A) [1]: 65% | inhibiting rate to B-cell proliferation (LPS) [2]: 73% | EC50 [3]: 3480 ± 720 nM | thickness difference of swelling on ears (DTH mice): obviously reduced the swelling degree on ears | weight difference of ear slices (DTH mice): obviously reduced the weight of swelling ears | inhibiting rate of swelling of the ear of mice compared with the control group (DTH mice; oral, 50 mg/kg, p<0.01): 56.5% | scorings of the arthritis degree [4]: can prevent and cure the mice arthritis induced by bovine collagen type II and inhibit the swelling of the sicked joints | swelling of the mice' joints ([4]; 1 mg/kg): obviously reduce the swelling of the mice' joints
